From patent publication US6355799B1, “Substituted benzene compounds, process for their preparation, and herbicidal and defoliant compositions containing them” (ISK Americas Incorporated, priority 1997, dated 2002)

Assays:
Assay type in all cases: in vivo
[1] = test system: redroot pigweed (Amaranthus retroflexus, AMARE); assay: Pre-emerge test, greenhouse herbicide activity screening; conditions: pre-emerge, rated 14 days after application, 0 = no damage, 100 = complete death
Procedure, shortened: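 Compounds in acetone were track-sprayed at 15-1000 g ai/ha (187 l/ha) on sandy loam pots: pre-emerge one day after seeding, post-emerge at 2-3 leaf stage with 0.25% v/v non-ionic surfactant. Phytotoxicity was rated 14 days later on a 0 (no damage) to 100 (complete death) scale.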

[2] = test system: upland rice (Oryza sp., var. Tebonnet, RICE); assay: Pre-emerge test, crop safety; conditions: pre-emerge, rated 14 days after application, 0 = no damage, 100 = complete death
Procedure, shortened: (§1)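 Compounds in acetone were track-sprayed at 187 l/ha, 15–1000 g ai/ha, onto sandy loam pots. Pre-emerge seeds were sown one day before spraying, with surface watering afterwards. Post-emerge plants were at the 2–3 leaf stage and sprayed with 0.25% v/v non-ionic surfactant. Injury was rated 0–100 at 14 days.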

[3] = test system: field corn (Zea mays L., var. Dekalb 535, CORN); assay: Pre-emerge test, crop safety; conditions: 63 g ai/ha; pre-emerge; rated 14 days after application; 0 = no damage, 100 = complete death
Procedure, shortened: as §1

[4] = test system: ivyleaf morningglory (Ipomoea hederacea, IPOHE); assay: Pre-emerge test, greenhouse herbicide activity screening; conditions: pre-emerge, rated 14 days after application, 0 = no damage, 100 = complete death
Procedure, shortened: (§2)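 Plants grown in 10 cm pots of sandy loam mix received acetone-dissolved compounds through a moving flat-fan nozzle. Doses ranged from 15 to 1000 g ai/ha. Pre-emerge pots were seeded one day earlier, post-emerge pots 8–21 days earlier. Fourteen days on, each pot was graded 0–100 for damage.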

[5] = test system: green foxtail (Setaria viridis, SETVI); assay: as above; conditions: pre-emerge, rated 14 days after application, 0 = no damage, 100 = complete death
Procedure, shortened: as §2

[6] = test system: lambsquarters (Chenopodium album, CHEAL); assay: as above; conditions: pre-emerge, rated 14 days after application, 0 = no damage, 100 = complete death
Procedure, shortened: as §2

[7] = test system: sicklepod (Cassia obtusifolia, CASOB); assay: as above; conditions: pre-emerge, rated 14 days after application, 0 = no damage, 100 = complete death
Procedure, shortened: as §2

[8] = test system: johnsongrass (Sorghum halepense, SORHA); assay: as above; conditions: pre-emerge, rated 14 days after application, 0 = no damage, 100 = complete death
Procedure, shortened: as §2

[9] = test system: large crabgrass (Digitaria sanguinalis, DIGSA); assay: as above; conditions: pre-emerge, rated 14 days after application, 0 = no damage, 100 = complete death
Procedure, shortened: as §2

[10] = test system: barnyardgrass (Echinochloa crus-galli, ECHCG); assay: as above; conditions: pre-emerge, rated 14 days after application, 0 = no damage, 100 = complete death
Procedure, shortened: as §2

[11] = test system: velvetleaf (Abutilon theophrasti, ABUTH); assay: as above; conditions: pre-emerge, rated 14 days after application, 0 = no damage, 100 = complete death
Procedure, shortened: as §2

[12] = test system: ivyleaf morningglory (Ipomoea hederacea, IPOHE); assay: Post-emerge test, greenhouse herbicide activity screening; conditions: phytotoxicity rating 0-100 (0 no damage, 100 complete death), 14 days after application
Procedure, shortened: (§3)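 Sandy loam pots; pre-emerge: sown 1 d pre-spray, surface-watered after, then bottom-watered. Post-emerge: sown 8–21 d before, 2–3 leaf stage, + 0.25% v/v NIS, bottom-watered. Acetone, 187 l/ha track spray, 15–1000 g ai/ha. 0–100 injury score, day 14.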

[13] = test system: green foxtail (Setaria viridis, SETVI); assay: as above; conditions: phytotoxicity rating 0-100 (0 no damage, 100 complete death), 14 days after application
Procedure, shortened: as §3

[14] = test system: lambsquarters (Chenopodium album, CHEAL); assay: as above; conditions: phytotoxicity rating 0-100 (0 no damage, 100 complete death), 14 days after application
Procedure, shortened: as §3

[15] = test system: sicklepod (Cassia obtusifolia, CASOB); assay: as above; conditions: phytotoxicity rating 0-100 (0 no damage, 100 complete death), 14 days after application
Procedure, shortened: as §3

[16] = test system: johnsongrass (Sorghum halepense, SORHA); assay: as above; conditions: phytotoxicity rating 0-100 (0 no damage, 100 complete death), 14 days after application
Procedure, shortened: as §3

[17] = test system: large crabgrass (Digitaria sanguinalis, DIGSA); assay: as above; conditions: phytotoxicity rating 0-100 (0 no damage, 100 complete death), 14 days after application
Procedure, shortened: as §3

[18] = test system: redroot pigweed (Amaranthus retroflexus, AMARE); assay: as above; conditions: phytotoxicity rating 0-100 (0 no damage, 100 complete death), 14 days after application
Procedure, shortened: as §3

[19] = test system: barnyardgrass (Echinochloa crus-galli, ECHCG); assay: as above; conditions: phytotoxicity rating 0-100 (0 no damage, 100 complete death), 14 days after application
Procedure, shortened: as §3

[20] = test system: velvetleaf (Abutilon theophrasti, ABUTH); assay: as above; conditions: phytotoxicity rating 0-100 (0 no damage, 100 complete death), 14 days after application
Procedure, shortened: as §3

[21] = test system: upland rice (Oryza sp., var. Tebonnet, RICE); assay: Post-emerge test, crop safety; conditions: phytotoxicity rating 0-100 (0 no damage, 100 complete death), 14 days after application
Procedure, shortened: (§4)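 Each test used a mechanized track sprayer delivering 187 l/ha of acetone solution at 15–1000 g ai/ha. Post-emerge foliage at 2–3 leaves was treated with added 0.25% v/v non-ionic surfactant and bottom-watered only. Injury was assessed on day 14, where 100 means total kill.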

[22] = test system: field corn (Zea mays L., var. Dekalb 535, CORN); assay: Post-emerge test, crop safety; conditions: phytotoxicity rating 0-100 (0 no damage, 100 complete death), 14 days after application
Procedure, shortened: as §4

C=C(C)C(=O)Nc1c(OC)c(Cl)cc(F)c1-n1c(=O)cc(C(F)(F)F)n(C)c1=O [2-5]
Pre-emerge Herbicidal Activity AMARE (phytotoxicity rating, scale 0-100) ([1]; 63 g ai/ha): 90 | Pre-emerge Herbicidal Activity AMARE (phytotoxicity rating, scale 0-100) ([1]; 250 g ai/ha): 100 | Pre-emerge crop damage RICE (phytotoxicity rating, scale 0-100) ([2]; 63 g ai/ha): 70 | Pre-emerge crop damage RICE (phytotoxicity rating, scale 0-100) ([2]; 250 g ai/ha): 80 | Pre-emerge crop damage CORN (phytotoxicity rating, scale 0-100) [3]: 10 | Pre-emerge Herbicidal Activity IPOHE (phytotoxicity rating, scale 0-100) ([4]; 63 g ai/ha): 90 | Pre-emerge Herbicidal Activity IPOHE (phytotoxicity rating, scale 0-100) ([4]; 250 g ai/ha): 100 | Pre-emerge Herbicidal Activity SETVI (phytotoxicity rating, scale 0-100) ([5]; 63 g ai/ha): 100 | Pre-emerge Herbicidal Activity SETVI (phytotoxicity rating, scale 0-100) ([5]; 250 g ai/ha): 100 | Pre-emerge Herbicidal Activity CHEAL (phytotoxicity rating, scale 0-100) ([6]; 63 g ai/ha): 100 | Pre-emerge Herbicidal Activity CHEAL (phytotoxicity rating, scale 0-100) ([6]; 250 g ai/ha): 100 | Pre-emerge Herbicidal Activity CASOB (phytotoxicity rating, scale 0-100) ([7]; 63 g ai/ha): 40 | Pre-emerge Herbicidal Activity CASOB (phytotoxicity rating, scale 0-100) ([7]; 250 g ai/ha): 100 | Pre-emerge Herbicidal Activity SORHA (phytotoxicity rating, scale 0-100) ([8]; 63 g ai/ha): 60 | Pre-emerge Herbicidal Activity SORHA (phytotoxicity rating, scale 0-100) ([8]; 250 g ai/ha): 90 | Pre-emerge Herbicidal Activity DIGSA (phytotoxicity rating, scale 0-100) ([9]; 63 g ai/ha): 50 | Pre-emerge Herbicidal Activity DIGSA (phytotoxicity rating, scale 0-100) ([9]; 250 g ai/ha): 95 | Pre-emerge Herbicidal Activity ECHCG (phytotoxicity rating, scale 0-100) ([10]; 63 g ai/ha): 10 | Pre-emerge Herbicidal Activity ECHCG (phytotoxicity rating, scale 0-100) ([10]; 250 g ai/ha): 90 | Pre-emerge Herbicidal Activity ABUTH (phytotoxicity rating, scale 0-100) ([11]; 63 g ai/ha): 100 | Pre-emerge Herbicidal Activity ABUTH (phytotoxicity rating, scale 0-100) ([11]; 250 g ai/ha): 100 | Post-emerge Herbicidal Activity IPOHE ([12]; 63 g ai/ha): 50 | Post-emerge Herbicidal Activity IPOHE ([12]; 250 g ai/ha): 90 | Post-emerge Herbicidal Activity SETVI ([13]; 63 g ai/ha): 0 | Post-emerge Herbicidal Activity SETVI ([13]; 250 g ai/ha): 0 | Post-emerge Herbicidal Activity CHEAL ([14]; 63 g ai/ha): 40 | Post-emerge Herbicidal Activity CHEAL ([14]; 250 g ai/ha): 70 | Post-emerge Herbicidal Activity CASOB ([15]; 63 g ai/ha): 10 | Post-emerge Herbicidal Activity CASOB ([15]; 250 g ai/ha): 50 | Post-emerge Herbicidal Activity SORHA ([16]; 63 g ai/ha): 0 | Post-emerge Herbicidal Activity SORHA ([16]; 250 g ai/ha): 30 | Post-emerge Herbicidal Activity DIGSA ([17]; 63 g ai/ha): 0 | Post-emerge Herbicidal Activity DIGSA ([17]; 250 g ai/ha): 0 | Post-emerge Herbicidal Activity AMARE ([18]; 63 g ai/ha): 20 | Post-emerge Herbicidal Activity AMARE ([18]; 250 g ai/ha): 40 | Post-emerge Herbicidal Activity ECHCG ([19]; 63 g ai/ha): 0 | Post-emerge Herbicidal Activity ECHCG ([19]; 250 g ai/ha): 0 | Post-emerge Herbicidal Activity ABUTH ([20]; 63 g ai/ha): 90 | Post-emerge Herbicidal Activity ABUTH ([20]; 250 g ai/ha): 100 | Post-emerge Herbicidal Activity RICE (crop damage) ([21]; 63 g ai/ha): 30 | Post-emerge Herbicidal Activity RICE (crop damage) ([21]; 250 g ai/ha): 40 | Post-emerge Herbicidal Activity CORN (crop damage) ([22]; 63 g ai/ha): 5 | Post-emerge Herbicidal Activity CORN (crop damage) ([22]; 250 g ai/ha): 10
